Tests used:
Type in all cases: in vivo, mice
BC143 breast cancer PDX = test: Tumor growth rate in BC143 patient-derived xenograft treated by DPT-C9h
Method: (§1) Breast-cancer patient xenografts (PDXs) were obtained by direct implant of patient tumor fragments in immunocompromised mice. (Arrouss Et al, PlosOne. 2013. 8, e60816).
(§2) Nine models treated by DPT-C9h (5 mg/kg/d IP, 5 days weekly, 4 to 6 weeks) were selected for the study, i.e. 7 breast cancer PDXs (BC11, BC52, BC143, BC146, BC173, BC227, and BC256), and 2 ovarian cancer PDXs (OV14 and OVM33). Three tumors of both control and treated groups were collected at the end of therapy, except for the BC146 for which 2 control tumors and 3 treated tumors were obtained. For each collected tumor, tumor volume was estimated according to the following formulae: V=a×b2/2, where a and b are the largest and the smallest perpendicular tumor diameters.
(§3) In a second time, a median TGR was defined for the control and treated groups of each PDX model. Finally, a ratio was calculated for each PDX model, as: median TGR of the treated group/median TGR of the corresponding control group. The inventors considered that a model was responder to DPT-C9h if the ratio was ≤0.5 (p<0.05), and resistant if the ratio was ≥0.8. In this, 3 models were considered as responder (BC52, BC173 and OV14), 4 as resistant (BC11, BC146, BC227, and BC256), and 2 remained undefined and were excluded from analyses (BC143 and OVM33) (Table 1).

BC11 breast cancer PDX = test: Tumor growth rate in BC11 patient-derived xenograft treated by DPT-C9h
Method: as §1, §2, §3

OVM33 ovarian cancer PDX = test: Tumor growth rate in OVM33 patient-derived xenograft treated by DPT-C9h
Method: as §2, §3

BC52 breast cancer PDX = test: Tumor growth rate in BC52 patient-derived xenograft treated by DPT-C9h
Method: as §1, §2, §3

BC227 breast cancer PDX = test: Tumor growth rate in BC227 patient-derived xenograft treated by DPT-C9h
Method: as §1, §2, §3

OV14 ovarian cancer PDX = test: Tumor growth rate in OV14 patient-derived xenograft treated by DPT-C9h
Method: as §2, §3

BC146 breast cancer PDX = test: Tumor growth rate in BC146 patient-derived xenograft treated by DPT-C9h
Method: as §1, §2, §3

BC256 breast cancer PDX = test: Tumor growth rate in BC256 patient-derived xenograft treated by DPT-C9h
Method: as §1, §2, §3

BC173 breast cancer PDX = test: Tumor growth rate in BC173 patient-derived xenograft treated by DPT-C9h
Method: as §1, §2, §3

[1] = TGR of treated group / TGR of control group
[2] = TGR=Vf/V1, 5 mg/kg/d IP, 5 days weekly, 4 to 6 weeks, end of therapy
[3] = responder if ratio ≤0.5 (p<0.05), resistant if ratio ≥0.8

Substance: VKKKKIKREIKI-YVETLDGIFEQWAHSEDL (VKKKKIKREIKIYVETLDGIFEQWAHSEDL; chimeric peptide) [DPT-C9h]
- Ratio TGR (BC143 breast cancer PDX; [1]): 0.68
- Mean TGR DPT (BC143 breast cancer PDX; [2]): 27.7
- conclusion (responder / resistant) (BC143 breast cancer PDX; class from ratio TGR): ND (ND: unidentified)
- model response to DPT-C9h (in words) (BC143 breast cancer PDX; [3]): undefined
- Ratio TGR (BC11 breast cancer PDX; [1]): 0.90
- Mean TGR DPT (BC11 breast cancer PDX; [2]): 24.3
- conclusion (responder / resistant) (BC11 breast cancer PDX; class from ratio TGR): − (−: resistant)
- model response to DPT-C9h (in words) (BC11 breast cancer PDX; [3]): resistant
- Ratio TGR (OVM33 ovarian cancer PDX; [1]): 0.65
- Mean TGR DPT (OVM33 ovarian cancer PDX; [2]): 35.0
- conclusion (responder / resistant) (OVM33 ovarian cancer PDX; class from ratio TGR): ND (ND: unidentified)
- model response to DPT-C9h (in words) (OVM33 ovarian cancer PDX; [3]): undefined
- Ratio TGR (BC52 breast cancer PDX; [1]): 0.38
- Mean TGR DPT (BC52 breast cancer PDX; [2]): 15.3
- conclusion (responder / resistant) (BC52 breast cancer PDX; class from ratio TGR): + (+: responder)
- model response to DPT-C9h (in words) (BC52 breast cancer PDX; [3]): responder
- Ratio TGR (BC227 breast cancer PDX; [1]): 1.38
- Mean TGR DPT (BC227 breast cancer PDX; [2]): 6.0
- conclusion (responder / resistant) (BC227 breast cancer PDX; class from ratio TGR): − (−: resistant)
- model response to DPT-C9h (in words) (BC227 breast cancer PDX; [3]): resistant
- Ratio TGR (OV14 ovarian cancer PDX; [1]): 0.44
- Mean TGR DPT (OV14 ovarian cancer PDX; [2]): 10.7
- conclusion (responder / resistant) (OV14 ovarian cancer PDX; class from ratio TGR): + (+: responder)
- model response to DPT-C9h (in words) (OV14 ovarian cancer PDX; [3]): responder
- Ratio TGR (BC146 breast cancer PDX; [1]): 0.96
- Mean TGR DPT (BC146 breast cancer PDX; [2]): 34.7
- conclusion (responder / resistant) (BC146 breast cancer PDX; class from ratio TGR): − (−: resistant)
- model response to DPT-C9h (in words) (BC146 breast cancer PDX; [3]): resistant
- Ratio TGR (BC256 breast cancer PDX; [1]): 1.23
- Mean TGR DPT (BC256 breast cancer PDX; [2]): 38.7
- conclusion (responder / resistant) (BC256 breast cancer PDX; class from ratio TGR): − (−: resistant)
- model response to DPT-C9h (in words) (BC256 breast cancer PDX; [3]): resistant
- Ratio TGR (BC173 breast cancer PDX; [1]): 0.45
- Mean TGR DPT (BC173 breast cancer PDX; [2]): 6.0
- conclusion (responder / resistant) (BC173 breast cancer PDX; class from ratio TGR): + (+: responder)
- model response to DPT-C9h (in words) (BC173 breast cancer PDX; [3]): responder
